In publication PMC6925656 (Clinical pharmacology and therapeutics, 2019):

Legend:
human OCT1 [1] = target: T1, human OCT1 (Homo sapiens, UniProt O15245); assay: Uptake into OCT1-expressing or nonexpressing Xenopus laevis oocytes
T1 sequence (O15245 1-554): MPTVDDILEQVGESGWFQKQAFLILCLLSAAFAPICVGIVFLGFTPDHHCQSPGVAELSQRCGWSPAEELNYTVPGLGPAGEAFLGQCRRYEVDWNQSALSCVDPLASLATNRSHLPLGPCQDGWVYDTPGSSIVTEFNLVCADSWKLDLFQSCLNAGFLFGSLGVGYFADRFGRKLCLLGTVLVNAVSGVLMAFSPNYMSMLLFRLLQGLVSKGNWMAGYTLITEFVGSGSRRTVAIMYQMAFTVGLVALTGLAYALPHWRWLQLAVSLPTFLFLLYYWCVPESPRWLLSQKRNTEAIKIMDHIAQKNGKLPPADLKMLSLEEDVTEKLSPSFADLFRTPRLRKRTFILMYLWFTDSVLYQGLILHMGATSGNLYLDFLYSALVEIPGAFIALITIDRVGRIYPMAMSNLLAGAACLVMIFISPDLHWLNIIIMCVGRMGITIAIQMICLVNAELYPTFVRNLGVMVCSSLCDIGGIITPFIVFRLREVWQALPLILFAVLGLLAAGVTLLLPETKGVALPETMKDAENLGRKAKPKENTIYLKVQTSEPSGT

hOATP2B1 = target: T2, hOATP2B1 (Homo sapiens, UniProt O94956); assay: Sorafenib uptake by HEK cells overexpressing hOATP2B1; format: in vitro ADME; settings: Figure S4
T2 sequence (O94956 1-709): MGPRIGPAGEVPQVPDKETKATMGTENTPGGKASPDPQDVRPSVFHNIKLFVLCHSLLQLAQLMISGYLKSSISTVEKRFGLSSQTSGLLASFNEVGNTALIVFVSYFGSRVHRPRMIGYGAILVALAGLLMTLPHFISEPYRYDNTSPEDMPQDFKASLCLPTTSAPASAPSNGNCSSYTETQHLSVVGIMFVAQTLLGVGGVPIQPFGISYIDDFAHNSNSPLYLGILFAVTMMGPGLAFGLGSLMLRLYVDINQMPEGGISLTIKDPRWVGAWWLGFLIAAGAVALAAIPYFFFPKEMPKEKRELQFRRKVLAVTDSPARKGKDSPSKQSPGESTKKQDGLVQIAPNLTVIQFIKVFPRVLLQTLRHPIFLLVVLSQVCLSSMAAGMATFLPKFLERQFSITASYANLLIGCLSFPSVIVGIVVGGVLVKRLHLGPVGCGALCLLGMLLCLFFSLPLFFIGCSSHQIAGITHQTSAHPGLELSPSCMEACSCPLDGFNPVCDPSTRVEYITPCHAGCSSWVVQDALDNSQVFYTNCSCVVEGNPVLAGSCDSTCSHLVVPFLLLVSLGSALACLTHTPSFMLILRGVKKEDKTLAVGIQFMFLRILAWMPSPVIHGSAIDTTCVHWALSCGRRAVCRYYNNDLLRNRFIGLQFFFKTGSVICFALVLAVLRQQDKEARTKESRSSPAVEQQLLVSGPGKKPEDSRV

OCT1 [2] = settings: cited from earlier work
p38α (MAPK14) = p38α (MAPK14) (Homo sapiens, UniProt Q16539); settings: live HEK293 cells, 60 min; BIRB796 5 nM, sorafenib 5 μM; DMSO 44.3 °C
OATP2B1 = target: T3, OATP2B1 (Mus musculus, UniProt Q8BXB6); assay: Sorafenib pharmacokinetics in OATP2B1-deficient mice; format: in vivo; settings: Figure S4
T3 sequence (Q8BXB6 1-683): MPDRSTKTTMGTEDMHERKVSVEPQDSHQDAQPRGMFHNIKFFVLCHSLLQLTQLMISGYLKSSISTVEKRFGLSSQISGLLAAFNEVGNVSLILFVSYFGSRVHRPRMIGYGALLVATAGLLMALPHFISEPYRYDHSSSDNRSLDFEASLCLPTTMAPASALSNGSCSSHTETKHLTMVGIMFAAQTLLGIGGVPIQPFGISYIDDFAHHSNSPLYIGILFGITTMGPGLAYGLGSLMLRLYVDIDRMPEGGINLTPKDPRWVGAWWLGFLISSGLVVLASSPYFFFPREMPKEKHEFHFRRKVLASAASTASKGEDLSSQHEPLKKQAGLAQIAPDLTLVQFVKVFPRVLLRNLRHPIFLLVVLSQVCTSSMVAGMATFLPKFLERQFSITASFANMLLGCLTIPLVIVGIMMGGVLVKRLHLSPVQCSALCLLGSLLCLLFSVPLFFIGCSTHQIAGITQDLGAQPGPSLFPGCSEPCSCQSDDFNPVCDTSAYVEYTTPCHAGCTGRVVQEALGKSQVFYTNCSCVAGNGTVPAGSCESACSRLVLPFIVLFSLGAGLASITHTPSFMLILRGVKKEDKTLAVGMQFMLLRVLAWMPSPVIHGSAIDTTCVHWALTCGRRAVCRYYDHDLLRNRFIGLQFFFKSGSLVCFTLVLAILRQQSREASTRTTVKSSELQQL

[3] = cited from earlier work
Oct1 [4] = assay: Pharmacokinetics in Oct1-deficient versus wild-type mice; settings: for Pharmacokinetic parameters, Oct1-deficient vs wild-type mice: sorafenib single oral dose 10 mg/kg, plasma
p38α = settings: cited from earlier work
human OCT2 = human OCT2 (Homo sapiens, UniProt O15244); settings: HEK293 cells overexpressing human OCT2, Figure S1
Huh7 cells = assay: Uptake into Huh7 liver cancer cells; format: in vitro ADME, human
mOATP2B1 = target: T4, mOATP2B1 (Mus musculus, UniProt Q8BXB6); assay: Sorafenib uptake by HEK cells overexpressing mOATP2B1; format: in vitro ADME; settings: Figure S4
T4 sequence (Q8BXB6 1-683): T3 sequence (Q8BXB6 1-683)

human OCT1 [5] = target: T1, human OCT1; assay: Uptake into HEK293 cells expressing human OCT1
HepG2 cells = assay: Uptake into HepG2 liver cancer cells; format: in vitro ADME, human
human OCT3 = target: T5, human OCT3 (Homo sapiens, UniProt O75751); assay: Sorafenib transport in HEK293 cells overexpressing human OCT3; format: in vitro ADME; settings: HEK293 cells overexpressing human OCT3, Figure S1
T5 sequence (O75751 1-556): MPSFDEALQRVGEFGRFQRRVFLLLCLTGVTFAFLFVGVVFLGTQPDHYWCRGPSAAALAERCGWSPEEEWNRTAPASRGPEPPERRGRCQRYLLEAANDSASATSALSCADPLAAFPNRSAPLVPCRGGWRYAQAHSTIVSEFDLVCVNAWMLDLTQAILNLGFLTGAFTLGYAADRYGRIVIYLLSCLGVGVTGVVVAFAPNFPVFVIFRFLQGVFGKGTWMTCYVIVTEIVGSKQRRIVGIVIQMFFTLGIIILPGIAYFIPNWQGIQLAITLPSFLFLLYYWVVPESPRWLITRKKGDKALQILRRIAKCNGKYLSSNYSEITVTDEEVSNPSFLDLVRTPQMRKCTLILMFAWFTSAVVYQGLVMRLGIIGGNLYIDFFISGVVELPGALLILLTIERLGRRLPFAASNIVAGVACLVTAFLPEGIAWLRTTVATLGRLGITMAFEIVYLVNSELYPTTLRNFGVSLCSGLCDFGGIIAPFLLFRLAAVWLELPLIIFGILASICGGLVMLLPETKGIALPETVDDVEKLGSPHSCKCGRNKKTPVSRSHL

HeLa cells = assay: Sorafenib uptake and membrane binding in HeLa cells; format: in vitro ADME; settings: for Interference with non-specific membrane binding of sorafenib: isolated membrane fraction

Chain of human OCT2 (O15244 whole entry): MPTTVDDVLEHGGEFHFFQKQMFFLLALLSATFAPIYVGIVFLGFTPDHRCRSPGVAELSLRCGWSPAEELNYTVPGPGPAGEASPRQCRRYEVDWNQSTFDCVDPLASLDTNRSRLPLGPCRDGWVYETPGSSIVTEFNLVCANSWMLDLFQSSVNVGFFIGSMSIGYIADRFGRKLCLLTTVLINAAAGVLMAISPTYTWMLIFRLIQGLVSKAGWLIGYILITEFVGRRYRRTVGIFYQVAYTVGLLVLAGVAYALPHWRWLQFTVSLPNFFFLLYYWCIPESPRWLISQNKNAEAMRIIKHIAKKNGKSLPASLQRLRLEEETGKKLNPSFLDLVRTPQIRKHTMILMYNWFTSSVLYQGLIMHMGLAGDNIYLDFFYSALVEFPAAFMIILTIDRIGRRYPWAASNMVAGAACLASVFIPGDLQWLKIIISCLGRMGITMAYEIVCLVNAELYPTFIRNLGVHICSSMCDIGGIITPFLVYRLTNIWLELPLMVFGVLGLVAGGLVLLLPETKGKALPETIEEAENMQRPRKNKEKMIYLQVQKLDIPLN
Chain of p38α (MAPK14) (Q16539 whole entry): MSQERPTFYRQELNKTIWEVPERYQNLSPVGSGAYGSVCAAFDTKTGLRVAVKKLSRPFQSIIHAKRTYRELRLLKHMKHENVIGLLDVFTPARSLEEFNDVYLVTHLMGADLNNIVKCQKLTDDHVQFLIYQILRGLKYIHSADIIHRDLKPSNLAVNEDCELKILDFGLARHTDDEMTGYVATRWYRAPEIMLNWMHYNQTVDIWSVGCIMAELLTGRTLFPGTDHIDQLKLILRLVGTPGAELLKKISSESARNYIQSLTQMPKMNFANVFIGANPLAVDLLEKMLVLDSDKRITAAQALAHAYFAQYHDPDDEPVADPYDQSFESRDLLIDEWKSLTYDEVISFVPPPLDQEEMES

## C[n+]1ccc(-c2ccccc2)cc1 [MPP]
Human OCT1 [1]; MPP 1 μM, 20 min
  Increase of MPP uptake, OCT1 present vs absent: 13 fold
Human OCT1 [1]; MPP 1 μM, 20 min, OCT1-expressing oocytes
  Uptake of MPP into oocytes in the presence of OCT1: 2.1 pmol/oocyte/20 min
Human OCT1 [1]; MPP 1 μM, 20 min, nonexpressing oocytes
  Uptake of MPP into oocytes in the absence of OCT1: 0.16 pmol/oocyte/20 min
Human OCT1 [1]; […] MPP as inhibitor, 1 μM MPP as substrate
  Effect of excess MPP on OCT1-mediated MPP uptake: completely blocked

## CNC(=O)c1cc(Oc2ccc(NC(=O)Nc3ccc(Cl)c(C(F)(F)F)c3)cc2)ccn1 [sorafenib]
hOATP2B1
  Sorafenib uptake, HEK-VC vs hOATP2B1-overexpressing HEK cells: did not detect a different sorafenib uptake
OCT1 [2]
  Inhibition of the transport of known OCT1 substrates: poor inhibitor
p38α (MAPK14)
  Apparent aggregation temperature of p38α: 54.5 °C
OATP2B1
  Effect of OATP2B1 deficiency in mice on sorafenib pharmacokinetics: did not detect
[3]
  Fraction of dose found in urine: About 19%
Oct1 [4]; sorafenib 10 mg/kg oral, 7.5 h
  Liver concentrations, Oct1-deficient vs wild-type mice: no significant differences
Oct1 [4]
  Pharmacokinetic parameters, Oct1-deficient vs wild-type mice: minimal difference
p38α
  IC50: 38 nM
Human OCT1 [1]; sorafenib 2 μM, 20 min, absence or presence of MPP […]
  Sorafenib uptake, OCT1-expressing vs nonexpressing oocytes: not different
Human OCT2
  Transport of sorafenib by OCT2: do not transport sorafenib
Huh7 cells; Huh7
  Characteristics of intracellular accumulation of sorafenib: saturable, increased over time, and was found to be temperature-dependent
mOATP2B1
  Sorafenib uptake, HEK-VC vs mOATP2B1-overexpressing HEK cells: did not detect a different sorafenib uptake
Human OCT1 [5]; sorafenib 0.2 μM, 10 min
  Sorafenib uptake, HEK293-OCT1 vs HEK293-VC cells: no difference
Human OCT1 [5]; sorafenib 7.5 μM, HEK293 cells, independently of OCT1
  Sorafenib transport at 4 °C compared with 37 °C: reduced
Human OCT1 [5]; sorafenib 7.5 μM, both HEK293-OCT1 and HEK293-VC cells
  Time at which sorafenib uptake reaches a plateau: about 10 min
HepG2 cells; HepG2
  Characteristics of intracellular accumulation of sorafenib: saturable, increased over time, and was found to be temperature-dependent
Human OCT3
  Transport of sorafenib by OCT3: do not transport sorafenib
HeLa cells; HeLa cells, sorafenib 0.2 μM, 10-min incubation
  Apparent cellular uptake of sorafenib: > 800 pmol/mg protein
HeLa cells; confirms earlier observation of ref 25
  Non-specific binding to cell membranes, share of total cell-associated drug: up to 70%

## CCN1/C(=C/c2ccc3ccccc3[n+]2CC)C=Cc2ccccc21.[I-] [decynium22]
Human OCT1 [5]; decynium22 5 μM, sorafenib 0.2 μM, 10 min
  Effect of inhibitor on sorafenib uptake in HEK293-OCT1 and HEK293-VC cells: decreased sorafenib uptake
Human OCT1 [5]; probe substrate TEA, OCT1-transfected HEK293 cells
  Effect of inhibitor on TEA uptake in OCT1 transfectants: almost completely abolished
HeLa cells; HeLa cells
  Interference with non-specific membrane binding of sorafenib: neither inhibitor interfered

## CNC(=O)c1cc(Oc2ccc(NC(=O)Nc3ccc(Cl)c(C(F)(F)F)c3)cc2)cc[n+]1[O-] [sorafenib-N-oxide]
Oct1 [4]; sorafenib 10 mg/kg oral, 7.5 h, data not shown
  Hepatic levels: below the lower limit of quantification
Oct1 [4]
  Pharmacokinetic parameters, Oct1-deficient vs wild-type mice: minimal difference
Human OCT1 [5]; 1 μM, HEK293 cells expressing VC or OCT1, time-dependent uptake
  Transport of sorafenib-N-oxide by OCT1: not transported by OCT1

## CC[N+](CC)(CC)CC [TEA]
Huh7 cells; Huh7, TEA 100 μM, 10 min
  TEA uptake compared to HEK293-OCT1 cells: did not take up appreciable levels
Human OCT1 [5]; TEA 100 μM, 10 min
  Increase of TEA uptake in HEK293-OCT1 vs HEK293-VC cells: 23.5±1.2 fold
HepG2 cells; HepG2, TEA 100 μM, 10 min
  TEA uptake compared to HEK293-OCT1 cells: did not take up appreciable levels

## cyclosporin A
HeLa cells; HeLa cells
  Interference with non-specific membrane binding of sorafenib: neither inhibitor interfered
